Measurements taken from patent US20170067909A1, “ASSAY-READY RECOMBINANT CELLS TRANSIENTLY OVEREXPRESSING GENES ENCODING DRUG TRANSPORTER PROTEINS AND/OR DRUG METABOLIZING ENZYMES” (Corning Incorporated, priority 2012, published 2017).
Residue numbers refer to the chain shown, from its start. Read-outs that look alike come from different tables or passages of the source.

Legend:
rat Oatp1b2 = molecular target: T1, rat Oatp1b2 (Rattus norvegicus, UniProt Q9QZX8)
T1 sequence (Q9QZX8 1-687): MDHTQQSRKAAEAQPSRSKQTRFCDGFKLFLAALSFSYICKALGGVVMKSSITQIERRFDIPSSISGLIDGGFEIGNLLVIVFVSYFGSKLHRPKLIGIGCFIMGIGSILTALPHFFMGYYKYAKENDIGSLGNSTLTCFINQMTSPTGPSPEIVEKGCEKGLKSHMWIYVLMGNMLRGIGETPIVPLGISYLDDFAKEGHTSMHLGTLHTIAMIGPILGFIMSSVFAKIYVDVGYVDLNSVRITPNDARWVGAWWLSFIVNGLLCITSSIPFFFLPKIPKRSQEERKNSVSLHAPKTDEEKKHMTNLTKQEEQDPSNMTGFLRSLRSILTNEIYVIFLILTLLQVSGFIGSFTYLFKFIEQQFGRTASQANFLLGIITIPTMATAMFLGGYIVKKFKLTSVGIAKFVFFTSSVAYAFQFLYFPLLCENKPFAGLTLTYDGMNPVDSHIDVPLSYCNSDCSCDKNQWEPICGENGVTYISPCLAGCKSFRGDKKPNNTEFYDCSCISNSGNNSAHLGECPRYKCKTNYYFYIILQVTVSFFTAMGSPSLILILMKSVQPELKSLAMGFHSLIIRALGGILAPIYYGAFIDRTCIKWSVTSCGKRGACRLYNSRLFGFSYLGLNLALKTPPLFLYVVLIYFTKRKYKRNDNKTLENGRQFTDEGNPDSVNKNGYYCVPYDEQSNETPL

OCT1 [1] = molecular target: T2, OCT1 (Homo sapiens, UniProt O15245); conditions: read-out: IC50, Literature Report; substrate Metformin; HEK293 Cells; Sumito I, et al., JPET, 2011; cited from earlier work
T2 sequence (O15245 whole entry): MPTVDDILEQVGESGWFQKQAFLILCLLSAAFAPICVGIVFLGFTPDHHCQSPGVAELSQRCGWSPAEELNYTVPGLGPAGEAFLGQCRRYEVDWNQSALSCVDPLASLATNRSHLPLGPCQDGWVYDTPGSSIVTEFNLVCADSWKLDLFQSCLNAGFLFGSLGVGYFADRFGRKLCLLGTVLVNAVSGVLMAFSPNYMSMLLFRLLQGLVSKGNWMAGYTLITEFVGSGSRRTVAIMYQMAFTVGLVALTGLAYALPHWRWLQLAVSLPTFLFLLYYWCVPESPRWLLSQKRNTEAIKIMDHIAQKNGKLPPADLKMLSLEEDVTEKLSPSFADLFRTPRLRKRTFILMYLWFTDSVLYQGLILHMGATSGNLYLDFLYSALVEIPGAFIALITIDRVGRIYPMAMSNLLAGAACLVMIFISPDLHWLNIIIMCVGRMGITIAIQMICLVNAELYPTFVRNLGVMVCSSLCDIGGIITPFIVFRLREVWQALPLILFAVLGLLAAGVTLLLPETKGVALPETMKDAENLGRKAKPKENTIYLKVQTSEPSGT

OCT2 [2] = molecular target: T3, OCT2 (Homo sapiens, UniProt O15244); conditions: read-out: IC50, Literature Report; substrate Metformin; HEK293 Cells; Sumito I, et al., JPET, 2011; cited from earlier work
T3 sequence (O15244 whole entry): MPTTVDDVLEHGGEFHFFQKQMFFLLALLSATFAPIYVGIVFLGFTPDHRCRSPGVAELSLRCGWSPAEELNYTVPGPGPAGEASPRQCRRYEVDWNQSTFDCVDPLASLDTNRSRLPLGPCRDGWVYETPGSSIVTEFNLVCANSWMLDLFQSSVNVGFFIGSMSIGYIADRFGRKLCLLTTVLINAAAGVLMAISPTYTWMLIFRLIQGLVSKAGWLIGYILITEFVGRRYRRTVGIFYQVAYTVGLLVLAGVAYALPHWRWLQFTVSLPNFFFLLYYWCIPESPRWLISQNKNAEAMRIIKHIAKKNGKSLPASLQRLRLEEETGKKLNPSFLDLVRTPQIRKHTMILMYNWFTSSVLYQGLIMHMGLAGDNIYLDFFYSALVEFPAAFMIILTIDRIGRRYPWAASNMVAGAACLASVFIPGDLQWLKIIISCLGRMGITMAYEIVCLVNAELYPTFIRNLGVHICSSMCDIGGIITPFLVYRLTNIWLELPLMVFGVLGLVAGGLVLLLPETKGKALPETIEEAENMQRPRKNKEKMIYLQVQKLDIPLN

OCT1 [3] = molecular target: T2, OCT1
OCT2 [4] = molecular target: T3, OCT2
OAT3 [5] = molecular target: T4, OAT3 (Homo sapiens, UniProt Q8TCC7); conditions: read-out: Km, Literature Report; HEK293 cells; Ueo H, et al., Biochem Pharmacol., 2005; cited from earlier work
T4 sequence (Q8TCC7 1-542): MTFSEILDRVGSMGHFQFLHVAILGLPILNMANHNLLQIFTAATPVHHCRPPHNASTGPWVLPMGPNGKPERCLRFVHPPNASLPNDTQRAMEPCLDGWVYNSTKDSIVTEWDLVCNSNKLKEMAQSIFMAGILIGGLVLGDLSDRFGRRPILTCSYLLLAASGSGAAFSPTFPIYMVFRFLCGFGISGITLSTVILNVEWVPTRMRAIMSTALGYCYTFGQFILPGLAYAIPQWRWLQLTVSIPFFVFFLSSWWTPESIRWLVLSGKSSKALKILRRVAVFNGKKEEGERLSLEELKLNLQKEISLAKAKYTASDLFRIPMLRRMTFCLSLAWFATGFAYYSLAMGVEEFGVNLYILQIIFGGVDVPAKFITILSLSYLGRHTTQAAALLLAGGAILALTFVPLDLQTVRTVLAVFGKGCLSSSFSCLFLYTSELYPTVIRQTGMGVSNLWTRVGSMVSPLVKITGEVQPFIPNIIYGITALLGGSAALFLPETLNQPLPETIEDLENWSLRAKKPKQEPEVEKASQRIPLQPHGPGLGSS

OAT3 [6] = molecular target: T4, OAT3; conditions: read-out: Km, SLC Transporter Cells; substrate 0.5 to 32 μM, incubation 1 min
MATE1 = molecular target: T5, MATE1 (Homo sapiens, UniProt Q96FL8); conditions: 5 min, 10 µM, pH 7.4
T5 sequence (Q96FL8 1-570): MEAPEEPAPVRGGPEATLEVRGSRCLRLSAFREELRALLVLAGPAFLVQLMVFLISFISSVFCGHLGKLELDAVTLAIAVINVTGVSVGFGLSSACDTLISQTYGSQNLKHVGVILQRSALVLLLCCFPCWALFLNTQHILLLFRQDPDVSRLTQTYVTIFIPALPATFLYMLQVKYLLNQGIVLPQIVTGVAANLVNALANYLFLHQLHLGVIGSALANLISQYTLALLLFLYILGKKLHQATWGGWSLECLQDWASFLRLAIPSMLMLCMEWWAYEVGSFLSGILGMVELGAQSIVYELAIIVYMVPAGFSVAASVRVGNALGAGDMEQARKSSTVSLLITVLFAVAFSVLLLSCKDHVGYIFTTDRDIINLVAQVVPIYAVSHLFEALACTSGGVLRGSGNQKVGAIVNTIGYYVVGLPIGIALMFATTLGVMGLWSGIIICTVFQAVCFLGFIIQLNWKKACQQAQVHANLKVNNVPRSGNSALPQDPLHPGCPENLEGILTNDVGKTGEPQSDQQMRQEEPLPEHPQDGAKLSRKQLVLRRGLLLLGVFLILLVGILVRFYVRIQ

MATE2K = MATE2K (Homo sapiens, UniProt Q86VL8); conditions: 5 min, 10 µM, pH 7.4
Chain of MATE2K (Q86VL8 1-566 isoform Q86VL8-3): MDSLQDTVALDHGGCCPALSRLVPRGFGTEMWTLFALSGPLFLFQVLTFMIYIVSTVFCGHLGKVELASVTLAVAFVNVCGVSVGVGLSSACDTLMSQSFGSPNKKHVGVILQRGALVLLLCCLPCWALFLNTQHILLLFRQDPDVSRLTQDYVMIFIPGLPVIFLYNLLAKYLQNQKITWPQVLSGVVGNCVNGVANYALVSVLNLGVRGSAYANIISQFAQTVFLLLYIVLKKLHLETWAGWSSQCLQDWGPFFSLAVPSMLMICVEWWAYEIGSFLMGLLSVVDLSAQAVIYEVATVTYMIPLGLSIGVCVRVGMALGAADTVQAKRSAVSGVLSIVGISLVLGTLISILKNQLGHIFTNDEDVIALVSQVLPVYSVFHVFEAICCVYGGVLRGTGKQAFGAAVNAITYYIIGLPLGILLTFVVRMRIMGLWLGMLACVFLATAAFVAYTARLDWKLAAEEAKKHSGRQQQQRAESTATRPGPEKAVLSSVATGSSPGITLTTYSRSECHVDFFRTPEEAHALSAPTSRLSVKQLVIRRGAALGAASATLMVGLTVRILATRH

OATP1B1*5 = molecular target: T6, OATP1B1*5 (Homo sapiens, UniProt Q9Y6L6, V174A)
T6 sequence (Q9Y6L6 1-691 V174A): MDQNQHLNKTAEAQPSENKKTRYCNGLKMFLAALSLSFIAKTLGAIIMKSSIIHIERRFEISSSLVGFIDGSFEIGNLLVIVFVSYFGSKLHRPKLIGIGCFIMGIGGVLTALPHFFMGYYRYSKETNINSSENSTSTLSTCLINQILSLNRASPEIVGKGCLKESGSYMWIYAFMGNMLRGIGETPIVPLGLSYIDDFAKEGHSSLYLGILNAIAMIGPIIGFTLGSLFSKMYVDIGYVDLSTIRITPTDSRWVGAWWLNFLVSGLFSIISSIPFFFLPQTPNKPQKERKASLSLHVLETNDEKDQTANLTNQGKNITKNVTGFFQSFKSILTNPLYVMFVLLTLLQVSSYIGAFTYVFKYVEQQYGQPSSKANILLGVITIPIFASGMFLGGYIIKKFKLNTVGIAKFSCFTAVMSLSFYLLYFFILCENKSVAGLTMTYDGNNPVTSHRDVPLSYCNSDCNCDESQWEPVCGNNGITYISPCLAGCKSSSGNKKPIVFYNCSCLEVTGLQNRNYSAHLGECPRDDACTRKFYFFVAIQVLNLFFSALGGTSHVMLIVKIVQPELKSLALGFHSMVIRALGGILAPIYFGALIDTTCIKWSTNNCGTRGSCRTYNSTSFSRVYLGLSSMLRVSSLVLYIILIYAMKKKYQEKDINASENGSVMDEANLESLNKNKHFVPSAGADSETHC

OATP1B1*15 = molecular target: T7, OATP1B1*15 (Homo sapiens, UniProt Q9Y6L6, N130D/V174A); conditions: for uptake reduced to: human
T7 sequence (Q9Y6L6 1-691 N130D/V174A): T6 sequence (Q9Y6L6 1-691 V174A) with N130D

[7] = HEK-293 cells overexpressing the transporter

For `CSCC[C@H](NC(=O)[C@H](Cc1ccc(OS(=O)(=O)O)cc1)NC(=O)[C@@H](N)CC(=O)O)C(=O)NCC(=O)N[C@@H](Cc1c[nH]c2ccccc12)C(=O)N[C@@H](CCSC)C(=O)N[C@@H](CC(=O)O)C(=O)N[C@@H](Cc1ccccc1)C(N)=O` [CCK-8, cholecystokinin], the “uptake of substrate (in words)” value (rat Oatp1b2; [7]) was “significant uptake” and the “uptake of substrate (in words)” value (dog Oatp1b4; [7]) was “significant uptake”.

For `CN/C(=N/CCSCc1nc[nH]c1C)NC#N` [Cimetidine], the IC50 (OCT1 [1]) is listed as 104 µM, the IC50 (OCT2 [2]) is listed as 124 µM and the IC50 (OCT1 [3]) is listed as 230 µM. For the same molecule, the IC50 (OCT2 [4]) was 195 µM.

In the case of `C[C@]12CC[C@@H]3c4ccc(OS(=O)(=O)O)cc4CC[C@H]3[C@@H]1CCC2=O` [E3S, Estrone-3-sulfate], the Km (OAT3 [5]) is listed as 6.3 µM and the Km (OAT3 [6]) is listed as 4 µM.

For `CN(C)C(=N)N=C(N)N` [Metformin], the “UPTAKE ACTIVITY SLC transporter” value (MATE1) was 71.4 pmol/mg/min, the “Uptake Ratio” value (MATE1) was 12 and the “UPTAKE ACTIVITY SLC transporter” value (MATE2K) was 33.5 pmol/mg/min. The “Uptake Ratio” value (MATE2K) was 6.5.

In the case of `CC(C)c1c(C(=O)Nc2ccccc2)c(-c2ccccc2)c(-c2ccc(F)cc2)n1CC[C@@H](O)C[C@@H](O)CC(=O)O` [atorvastatin], the “uptake activity / transport compared to OATP1B1*1a cells (in words)” value (OATP1B1*5) is reported as “Significant decrease in uptake activity” and the “uptake activity / transport compared to OATP1B1*1a cells (in words)” value (OATP1B1*15) is reported as “Significant decrease in uptake activity”.

With `CC(C)n1c(/C=C/C(O)CC(O)CC(=O)O)c(-c2ccc(F)cc2)c2ccccc21` (stereo not shown) [fluvastatin] the “uptake reduced to” value (OATP1B1*15) was “less than 5%”.

In the case of `O=C(O)C[C@H](O)C[C@H](O)/C=C/c1c(C2CC2)nc2ccccc2c1-c1ccc(F)cc1` [pitavastatin], the “uptake reduced to” value (OATP1B1*15) is reported as 40%.

For `CC(C)c1nc(N(C)S(C)(=O)=O)nc(-c2ccc(F)cc2)c1/C=C/[C@@H](O)C[C@@H](O)CC(=O)O` [rosuvastatin], the “uptake of substrate (in words)” value (monkey Oatp1b1) was “significant uptake”, the “uptake of substrate (in words)” value (rat Oatp1b2) was “significant uptake” and the “uptake of substrate (in words)” value (dog Oatp1b4) was “significant uptake”.
